A value given as a limit tells only on which side of the number the result lay.

Recombinant human KIF18A (1-467His-tagged) protein, sequence (Q8NI77 1-467): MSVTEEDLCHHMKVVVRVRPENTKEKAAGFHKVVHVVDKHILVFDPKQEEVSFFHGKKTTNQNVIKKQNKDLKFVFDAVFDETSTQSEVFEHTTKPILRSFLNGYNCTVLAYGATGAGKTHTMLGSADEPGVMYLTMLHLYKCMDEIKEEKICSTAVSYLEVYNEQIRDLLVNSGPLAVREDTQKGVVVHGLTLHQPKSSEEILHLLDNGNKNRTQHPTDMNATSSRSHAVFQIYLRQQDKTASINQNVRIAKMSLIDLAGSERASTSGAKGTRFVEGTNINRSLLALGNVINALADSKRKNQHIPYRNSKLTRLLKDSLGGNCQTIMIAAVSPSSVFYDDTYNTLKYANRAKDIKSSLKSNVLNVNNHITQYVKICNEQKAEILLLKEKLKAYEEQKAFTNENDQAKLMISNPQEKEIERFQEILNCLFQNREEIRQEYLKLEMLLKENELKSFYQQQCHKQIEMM
Recombinant human KIF18A (1-467His-tagged) protein, sequence (P02550 whole entry partner): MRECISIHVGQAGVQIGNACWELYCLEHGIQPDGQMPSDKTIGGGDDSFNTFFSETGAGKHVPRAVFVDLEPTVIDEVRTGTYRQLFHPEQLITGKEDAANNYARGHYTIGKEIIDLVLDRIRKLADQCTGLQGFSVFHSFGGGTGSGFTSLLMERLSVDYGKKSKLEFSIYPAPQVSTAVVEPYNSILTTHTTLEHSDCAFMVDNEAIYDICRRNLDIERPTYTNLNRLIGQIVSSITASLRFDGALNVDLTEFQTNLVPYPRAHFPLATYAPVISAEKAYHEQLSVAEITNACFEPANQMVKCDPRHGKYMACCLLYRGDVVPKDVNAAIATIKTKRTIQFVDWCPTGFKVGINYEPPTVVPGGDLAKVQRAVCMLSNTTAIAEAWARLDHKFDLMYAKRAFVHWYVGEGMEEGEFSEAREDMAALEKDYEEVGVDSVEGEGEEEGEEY
Recombinant human KIF18A (1-467His-tagged) protein, sequence (P02554 whole entry partner): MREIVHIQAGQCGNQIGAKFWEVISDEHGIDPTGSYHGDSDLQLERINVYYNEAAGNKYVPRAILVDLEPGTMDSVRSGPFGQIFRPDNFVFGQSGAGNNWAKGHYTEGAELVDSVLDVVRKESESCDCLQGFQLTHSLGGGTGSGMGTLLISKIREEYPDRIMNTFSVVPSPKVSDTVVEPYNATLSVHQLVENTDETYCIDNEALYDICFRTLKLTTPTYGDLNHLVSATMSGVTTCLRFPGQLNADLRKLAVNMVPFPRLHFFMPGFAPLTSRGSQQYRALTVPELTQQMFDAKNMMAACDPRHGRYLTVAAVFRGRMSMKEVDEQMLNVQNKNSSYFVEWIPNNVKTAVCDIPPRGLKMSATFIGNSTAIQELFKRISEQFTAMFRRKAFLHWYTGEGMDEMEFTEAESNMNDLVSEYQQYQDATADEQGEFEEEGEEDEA

The target in this assay is Recombinant human KIF18A (1-467His-tagged) protein (Homo sapiens (Human), UniProt Q8NI77). Description: KIF18A enzyme assay (microtubule-stimulated ATPase activity, ADP-Glo). The settings on record: 30 nM KIF18A, ATP 75 μM, read-out: inhibitory activity against KIF18A IC50. It is filed as biochemical. In short, it runs like this:
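Baculovirus-expressed human KIF18A (1-467, His-tagged; 30 nM) preincubated 15 min at room temperature with compound (22-point 2-fold series) in pH 7.5 Tris buffer containing 30 μg/mL pig microtubules and 1 μM paclitaxel.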
In general terms: ADP-Glo turns the ADP formed in a reaction into a luminescent signal.
As to `CC(C)(CO)Nc1nc(C(=O)Nc2ccc(NS(=O)(=O)CCO)cc2N2CCC3(CC2)CC3)cc2ccoc12` [Compound 235], the IC50 is at most 100 nM.

Take `CN1CCc2cc(NC(=O)c3ccc(NS(=O)(=O)CCO)cc3N3CCC4(CC3)CC4)nc(N3CCC4(CC4)C3)c21` [Compound 326]: the IC50 was at most 100 nM.

`CC(C)(CO)Nc1nc(NC(=O)c2ccc(NS(=O)(=O)CCO)cc2N2CCC3(CC2)CC3)cc2c1OCC2` [Compound 75]: the IC50 was at most 100 nM.

For `C[C@@H]1CN(c2nc(C(=O)Nc3ccc(NS(=O)(=O)CCO)cc3N3CCC4(CC3)CC4)cc3c2N(C)CC3)CCO1` [Compound 354], the IC50 is at most 100 nM.

For `C[C@@H]1CN(c2nc(NC(=O)c3ccc(S(=O)(=O)N[C@@H](C)CO)cc3N3CCC4(CC3)CC4)cc3c2N(C)CC3)CCO1` [Compound 351], the IC50 is at most 100 nM.

Consider `O=C(Nc1cc(N2CCC(F)(F)CC2)c2occc2c1)c1ccc(S(=O)(=O)NCCO)cc1N1CCC2(CC1)CC2` [Compound 145], for which the half-inhibitory concentration (IC50) is at most 100 nM.

For `O=C(Nc1ccc(S(=O)(=O)NCCO)cc1N1CCC2(CC1)CC2)c1cc2ccoc2c(N2CCOCC2)n1` [Compound 252], the IC50 is at most 100 nM.

In the case of `O=C(Nc1cc2c(c(N3CCC(F)(F)CC3)c1)CCCC2)c1ccc(NS(=O)(=O)CCO)cc1N1CCC2(CC1)CC2` [Compound 531], the IC50 lay in the range of 100 to 500 nM.

As to `Cn1cnc2cc(NC(=O)c3ccc(NS(=O)(=O)CCO)cc3N3CCC4(CC3)CC4)cc(N3CCC(F)(F)CC3)c21` [Compound 528], the IC50 was at most 100 nM.

On to `CN1CCc2cc(C(=O)Nc3ccc(NS(=O)(=O)CCO)cc3N3CCC4(CC3)CC4)nc(N3CCC(F)CC3)c21` [Compound 361], for which the IC50 is at most 100 nM.

On to `CN1CCc2cc(NC(=O)c3ccc(NS(=O)(=O)CCO)cc3N3CCC4(CC3)CC4)nc(N3CC(F)(F)C3)c21` [Compound 324], for which the IC50 was at most 100 nM.

Take `O=C(Nc1cc2c(c(N3CCC(F)CC3)n1)OCC2)c1ccc(S(=O)(=O)NCCO)cc1N1CCC2(CC1)CC2` [Compound 89]: the half-inhibitory concentration (IC50) was at most 100 nM.

As to `CC(C)(CO)Nc1cc(C(=O)Nc2ccc(S(=O)(=O)NCCO)cc2N2CCC3(CC2)CC3)cc2ccoc12` [Compound 187], the IC50 was at most 100 nM.

For the compound `Cn1ccc2cc(C(=O)Nc3ccc(S(=O)(=O)NCCO)cc3N3CCC4(CC3)CC4)cc(N3CCC4(CC4)C3)c21` [Compound 438], the IC50 is at most 100 nM.

As for `CN1CCc2cc(C(=O)Nc3ccc(S(=O)(=O)NCCO)cc3N3CCC4(CC3)CC4)nc(N3CC(F)(F)C3)c21` [Compound 372], the IC50 is at most 100 nM.

Turning to `O=C(Nc1ccc(S(=O)(=O)NCCO)cc1N1CCC2(CC1)CC2)c1cc(OCCC(F)(F)F)c2occc2c1` [Compound 181], the half-inhibitory concentration (IC50) is at most 100 nM.

Regarding `O=C(Nc1ccc(NS(=O)(=O)CCO)cc1N1CCC2(CC1)CC2)c1cc(OC2CCC2)c2occc2c1` [Compound 167], the IC50 is at most 100 nM.

Regarding `C[C@@H](CO)NS(=O)(=O)c1ccc(NC(=O)c2cc(N3CCC(F)(F)CC3)c3c(ccn3C)c2)c(N2CCC3(CC2)CC3)c1` [Compound 445], the IC50 was at most 100 nM.

Regarding `C[C@H](CO)NS(=O)(=O)c1ccc(C(=O)Nc2cc3c(c(N4CCO[C@H](C)C4)c2)OCC3)c(N2CCC3(CC2)CC3)c1` [Compound 32], the IC50 was at most 100 nM.

Consider `C[C@@H](CO)NS(=O)(=O)c1ccc(C(=O)Nc2cc3c(c(N4CCC(F)(F)CC4)n2)N(C)CC3)c(N2CCC3(CC2)CC3)c1` [Compound 349], for which the IC50 is at most 100 nM.

As for `CC(C)(CO)Nc1cc(C(=O)Nc2ccc(NS(=O)(=O)CCO)cc2N2CCC3(CC2)CC3)cc2c1OCC2` [Compound 43], the IC50 was at most 100 nM.

For orientation: IC50 means the midpoint of a concentration-inhibition curve.

The values above are taken from US20250197382A1, “KIF18A INHIBITOR” (WIGEN BIOMEDICINE TECHNOLOGY (SHANGHAI) CO., LTD., priority 2022, published 2025).
